In US11517512B2, “Personal care compositions comprising zinc : usnic acid complexes and methods of use” (Colgate-Palmolive Company, priority 2017, dated 2022) one finds MIC and solubility data, which are given here for 1 compound.

In brackets after ≈: the same amount, converted by molar mass. Some results are limits rather than exact numbers.

One data set has as its system Escherichia coli. Nature of the data set: Minimal inhibitory concentration, broth micro dilution method. It counts as cell-based. Particulars: overnight incubation, OD 610 nm, stock in DMSO, read-out: MIC E. Coli (G−). On the procedure: (§1) Minimal inhibition concentration (MIC) is the lowest concentration of an antimicrobial agent that can inhibit the visible growth of a microorganism after overnight incubation. The MIC values of zinc:usnate complex and usnic acid against Staphylococcus aureus and Escherichia coli were determined with the broth micro dilution method. Briefly, 0.1% stock solutions were prepared in dimethyl sulfoxide (DMSO). Using a 96-well microtitre plate, the corresponding testing concentrations are 500, 250, 125, 62, 31, 16, 8, 4, 2, 1, 0.5 and 0.2 ppm, respectively. The optic density readings at 610 nm for each well were used to assess the level of bacterial growth.

In the next data set the test system is Staphylococcus aureus. Described as above. In kind it is cell-based. Particulars: overnight incubation, OD 610 nm, stock in DMSO, read-out: MIC S. aureus (G+). Here is the method:
as §1

For data set [1] the following is noted: DI water at 35° C.; Jin et al., J Solution Chem., 2013; cited from earlier work.

For the compound `CC(=O)c1c(O)c(C)c(O)c2c1OC1=CC(=O)C(C(C)=O)C(=O)C12C` (stereo not drawn) [Usnic Acid, usnic acid], the results for the MIC in the data set with Escherichia coli and in the data set on Staphylococcus aureus were more than 125 µg/mL and 4 µg/mL (≈ 11.6 µM), respectively. The solubility in data set [1] is 6.3 ppm.
